Reference: PubChem BioAssay AID2060504 (Molecular Pharmacology Branch, DTP, NCI, 2025)

System: 636577-100-R-J1-PDC complex spheroid viability
Assay: Anticancer human tumor 636577-100-R-J1-PDC patient-derived endometrial adenocarcinoma cell line growth inhibition [GQUAD]
Conditions: for IC50: curve of first compound; for viability, T/C: stronger effect = lower value
Procedure, shortened: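 Multi-cell-type spheroids of tumor cells with HUVEC and mesenchymal stem cells, treated with drug combinations. Concentrations descend in half-log steps from near clinical Cmax, or from 10 microM where Cmax is unknown; viability read-out.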

[1] = second compound 0.0316 µM, first compound 0.0316 µM
[2] = second compound 0.0316 µM, first compound 0.1 µM
[3] = second compound 0.0316 µM, first compound 0.316 µM
[4] = second compound 0.0316 µM, first compound 1 µM
[5] = second compound 0.0316 µM, first compound 3.16 µM
[6] = second compound 0.0316 µM, first compound 10 µM
[7] = second compound 0.1 µM, first compound 0.0316 µM
[8] = second compound 0.1 µM, first compound 0.1 µM
[9] = second compound 0.1 µM, first compound 0.316 µM
[10] = second compound 0.1 µM, first compound 1 µM
[11] = second compound 0.1 µM, first compound 3.16 µM
[12] = second compound 0.1 µM, first compound 10 µM
[13] = second compound 0.316 µM, first compound 0.0316 µM
[14] = second compound 0.316 µM, first compound 0.1 µM
[15] = second compound 0.316 µM, first compound 0.316 µM
[16] = second compound 0.316 µM, first compound 1 µM
[17] = second compound 0.316 µM, first compound 3.16 µM
[18] = second compound 0.316 µM, first compound 10 µM
[19] = second compound 1 µM, first compound 0.0316 µM
[20] = second compound 1 µM, first compound 0.1 µM
[21] = second compound 1 µM, first compound 0.316 µM
[22] = second compound 1 µM, first compound 1 µM
[23] = second compound 1 µM, first compound 3.16 µM
[24] = second compound 1 µM, first compound 10 µM
[25] = second compound 3.16 µM, first compound 0.0316 µM
[26] = second compound 3.16 µM, first compound 0.1 µM
[27] = second compound 3.16 µM, first compound 0.316 µM
[28] = second compound 3.16 µM, first compound 1 µM
[29] = second compound 3.16 µM, first compound 3.16 µM
[30] = second compound 3.16 µM, first compound 10 µM
[31] = second compound 10 µM, first compound 0.0316 µM
[32] = second compound 10 µM, first compound 0.1 µM
[33] = second compound 10 µM, first compound 0.316 µM
[34] = second compound 10 µM, first compound 1 µM
[35] = second compound 10 µM, first compound 3.16 µM
[36] = second compound 10 µM, first compound 10 µM
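Further: viability read after seven days of drug exposure.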
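Wherever viability, T/C is given: luminescence signal used as a proxy for viable cells; 100% = DMSO vehicle control wells.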

Question: How did the IC50 (second compound 0.0316 µM) turn out when `C=CCn1c(=O)c2cnc(Nc3ccc(N4CCN(C)CC4)cc3)nc2n1-c1cccc(C(C)(C)O)n1` + CN(C)c1ccc(Nc2c3ccc(NC(=O)CCN4CCCC4)cc3nc3cc(NC(=O)CCN4CCCC4)ccc23)cc1 was run?
Answer: 598 nM

Question: What about the IC50 (second compound 0.1 µM) of the same compound?
Answer: 304 nM

Question: What about the IC50 (second compound 0.316 µM) of the same compound?
Answer: 382 nM

Question: What about the IC50 (second compound 1 µM) of the same compound?
Answer: 353 nM

Question: What about the IC50 (second compound 3.16 µM) of the same compound?
Answer: < 31.6 nM

Question: And the IC50 (second compound 10 µM)?
Answer: < 31.6 nM

Question: And the viability, T/C [1]?
Answer: 88.3%

Question: And the viability, T/C [2]?
Answer: 67.3%

Question: And the viability, T/C [3]?
Answer: 81.4%

Question: And the viability, T/C [4]?
Answer: 26.6%

Question: And the viability, T/C [5]?
Answer: 15.9%

Question: What about the viability, T/C [6] of the same compound?
Answer: 9.28%

Question: What about the viability, T/C [7] of the same compound?
Answer: 107%

Question: What about the viability, T/C [8] of the same compound?
Answer: 73.6%

Question: And the viability, T/C [9]?
Answer: 51.7%

Question: And the viability, T/C [10]?
Answer: 28.9%

Question: And the viability, T/C [11]?
Answer: 15.1%

Question: What about the viability, T/C [12] of the same compound?
Answer: 9.88%

Question: What about the viability, T/C [13] of the same compound?
Answer: 88.3%

Question: And the viability, T/C [14]?
Answer: 69.2%

Question: What about the viability, T/C [15] of the same compound?
Answer: 57.7%

Question: What about the viability, T/C [16] of the same compound?
Answer: 30.9%

Question: What about the viability, T/C [17] of the same compound?
Answer: 15.2%

Question: And the viability, T/C [18]?
Answer: 9.64%

Question: And the viability, T/C [19]?
Answer: 48.6%

Question: And the viability, T/C [20]?
Answer: 63%

Question: What about the viability, T/C [21] of the same compound?
Answer: 52.1%

Question: What about the viability, T/C [22] of the same compound?
Answer: 32%

Question: What about the viability, T/C [23] of the same compound?
Answer: 19.2%

Question: What about the viability, T/C [24] of the same compound?
Answer: 11.6%

Question: And the viability, T/C [25]?
Answer: 37.6%

Question: What about the viability, T/C [26] of the same compound?
Answer: 36.8%

Question: And the viability, T/C [27]?
Answer: 30.9%

Question: And the viability, T/C [28]?
Answer: 23.8%

Question: What about the viability, T/C [29] of the same compound?
Answer: 16.5%

Question: And the viability, T/C [30]?
Answer: 10.8%

Question: What about the viability, T/C [31] of the same compound?
Answer: 5.9%

Question: And the viability, T/C [32]?
Answer: 4.13%

Question: What about the viability, T/C [33] of the same compound?
Answer: 3.79%

Question: What about the viability, T/C [34] of the same compound?
Answer: 3.8%

Question: And the viability, T/C [35]?
Answer: 2.91%

Question: What about the viability, T/C [36] of the same compound?
Answer: 0.74%

Question: For `CC(C)(O)C1CCC(Nc2ccc3ncc(-c4cccc(C(F)(F)F)c4)n3n2)CC1` (stereo unspecified) + CN(C)c1ccc(Nc2c3ccc(NC(=O)CCN4CCCC4)cc3nc3cc(NC(=O)CCN4CCCC4)ccc23)cc1, which IC50 (second compound 0.0316 µM) is on record?
Answer: 2080 nM

Question: And the IC50 (second compound 0.1 µM)?
Answer: 1450 nM

Question: What about the IC50 (second compound 0.316 µM) of the same compound?
Answer: 1580 nM

Question: And the IC50 (second compound 1 µM)?
Answer: 1520 nM

Question: What about the IC50 (second compound 3.16 µM) of the same compound?
Answer: < 31.6 nM

Question: And the IC50 (second compound 10 µM)?
Answer: < 31.6 nM

Question: And the viability, T/C [1]?
Answer: 107%

Question: What about the viability, T/C [2] of the same compound?
Answer: 82%

Question: And the viability, T/C [3]?
Answer: 104%

Question: And the viability, T/C [4]?
Answer: 77.6%

Question: What about the viability, T/C [5] of the same compound?
Answer: 34.6%

Question: What about the viability, T/C [6] of the same compound?
Answer: 33.8%

Question: What about the viability, T/C [7] of the same compound?
Answer: 83.9%

Question: And the viability, T/C [8]?
Answer: 59.2%

Question: What about the viability, T/C [9] of the same compound?
Answer: 109%

Question: And the viability, T/C [10]?
Answer: 57.8%

Question: And the viability, T/C [11]?
Answer: 30%

Question: And the viability, T/C [12]?
Answer: 37.2%

Question: And the viability, T/C [13]?
Answer: 69.3%

Question: What about the viability, T/C [14] of the same compound?
Answer: 57.9%

Question: And the viability, T/C [15]?
Answer: 96.7%

Question: What about the viability, T/C [16] of the same compound?
Answer: 63.6%

Question: What about the viability, T/C [17] of the same compound?
Answer: 30.6%

Question: What about the viability, T/C [18] of the same compound?
Answer: 28.1%

Question: And the viability, T/C [19]?
Answer: 77.2%

Question: And the viability, T/C [20]?
Answer: 54.1%

Question: What about the viability, T/C [21] of the same compound?
Answer: 66.5%

Question: What about the viability, T/C [22] of the same compound?
Answer: 63.6%

Question: And the viability, T/C [23]?
Answer: 26.4%

Question: And the viability, T/C [24]?
Answer: 22.2%

Question: What about the viability, T/C [25] of the same compound?
Answer: 41.3%

Question: And the viability, T/C [26]?
Answer: 46.2%

Question: What about the viability, T/C [27] of the same compound?
Answer: 40.6%

Question: And the viability, T/C [28]?
Answer: 33.5%

Question: And the viability, T/C [29]?
Answer: 15.8%

Question: And the viability, T/C [30]?
Answer: 9.06%

Question: What about the viability, T/C [31] of the same compound?
Answer: 5.85%

Question: And the viability, T/C [32]?
Answer: 5.51%

Question: What about the viability, T/C [33] of the same compound?
Answer: 5.56%

Question: What about the viability, T/C [34] of the same compound?
Answer: 4.55%

Question: And the viability, T/C [35]?
Answer: 1.2%

Question: And the viability, T/C [36]?
Answer: 0.47%

Question: What does the source list for `CCCS(=O)(=O)Nc1ccc(F)c(C(=O)c2c[nH]c3ncc(-c4ccc(Cl)cc4)cc23)c1F` + CN(C)c1ccc(Nc2c3ccc(NC(=O)CCN4CCCC4)cc3nc3cc(NC(=O)CCN4CCCC4)ccc23)cc1?
Answer: IC50 (second compound 0.0316 µM): 6700 nM; IC50 (second compound 0.1 µM): 6470 nM; IC50 (second compound 0.316 µM): 6630 nM; IC50 (second compound 1 µM): 6620 nM; IC50 (second compound 3.16 µM): < 31.6 nM; IC50 (second compound 10 µM): < 31.6 nM; viability, T/C [1]: 101%; viability, T/C [2]: 98.1%; viability, T/C [3]: 118%; viability, T/C [4]: 59.4%; viability, T/C [5]: 87.2%; viability, T/C [6]: 35.4%; viability, T/C [7]: 96.4%; viability, T/C [8]: 79.3%; viability, T/C [9]: 89.1%; viability, T/C [10]: 73.1%; viability, T/C [11]: 80.4%; viability, T/C [12]: 32.8%; viability, T/C [13]: 82.4%; viability, T/C [14]: 83%; viability, T/C [15]: 80.2%; viability, T/C [16]: 69.2%; viability, T/C [17]: 74.9%; viability, T/C [18]: 37.6%; viability, T/C [19]: 79.3%; viability, T/C [20]: 69.8%; viability, T/C [21]: 78.9%; viability, T/C [22]: 89.8%; viability, T/C [23]: 77.7%; viability, T/C [24]: 34.5%; viability, T/C [25]: 35.7%; viability, T/C [26]: 47.9%; viability, T/C [27]: 47.1%; viability, T/C [28]: 43%; viability, T/C [29]: 40.6%; viability, T/C [30]: 18.5%; viability, T/C [31]: 5.58%; viability, T/C [32]: 6.42%; viability, T/C [33]: 6.13%; viability, T/C [34]: 6.09%; viability, T/C [35]: 4.83%; viability, T/C [36]: 1.82%
